Results: patent publication US12162858B2, “Quinoline derivatives as inhibitors of AXL/MER RTK and CSF1R” (QURIENT CO., LTD., priority 2018, dated 2024)

Assays:
CSF1R (M-NFS-60 cells) = test: Cell Titer-Glo viability assay using M-NFS-60 cells; type: cell-based; details: Mus musculus, read-out: Cellular CSF1R activity by M-NFS-60 viability assay (IC50 activity range)
Outline: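 M-NFS-60 cells grown with 62 ng/ml recombinant human M-CSF, seeded at 2×10^5 cells/well and incubated at 37 °C/5% CO2. Compounds given as 3-fold serial dilutions (10 doses); viability read by CellTiter-Glo luminescence, sigmoidal dose-response fit.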

CSF1R = CSF1R (Homo sapiens, UniProt P07333); test: Cellular CSF1R inhibition ELISA (p-CSF1R, M-CSF-induced) using THP-1 cells; type: cell-based; parameters: THP-1 cells act as a model for human monocytes; endogenous in cells; host or cells: THP-1
Sequence of CSF1R (P07333 20-972): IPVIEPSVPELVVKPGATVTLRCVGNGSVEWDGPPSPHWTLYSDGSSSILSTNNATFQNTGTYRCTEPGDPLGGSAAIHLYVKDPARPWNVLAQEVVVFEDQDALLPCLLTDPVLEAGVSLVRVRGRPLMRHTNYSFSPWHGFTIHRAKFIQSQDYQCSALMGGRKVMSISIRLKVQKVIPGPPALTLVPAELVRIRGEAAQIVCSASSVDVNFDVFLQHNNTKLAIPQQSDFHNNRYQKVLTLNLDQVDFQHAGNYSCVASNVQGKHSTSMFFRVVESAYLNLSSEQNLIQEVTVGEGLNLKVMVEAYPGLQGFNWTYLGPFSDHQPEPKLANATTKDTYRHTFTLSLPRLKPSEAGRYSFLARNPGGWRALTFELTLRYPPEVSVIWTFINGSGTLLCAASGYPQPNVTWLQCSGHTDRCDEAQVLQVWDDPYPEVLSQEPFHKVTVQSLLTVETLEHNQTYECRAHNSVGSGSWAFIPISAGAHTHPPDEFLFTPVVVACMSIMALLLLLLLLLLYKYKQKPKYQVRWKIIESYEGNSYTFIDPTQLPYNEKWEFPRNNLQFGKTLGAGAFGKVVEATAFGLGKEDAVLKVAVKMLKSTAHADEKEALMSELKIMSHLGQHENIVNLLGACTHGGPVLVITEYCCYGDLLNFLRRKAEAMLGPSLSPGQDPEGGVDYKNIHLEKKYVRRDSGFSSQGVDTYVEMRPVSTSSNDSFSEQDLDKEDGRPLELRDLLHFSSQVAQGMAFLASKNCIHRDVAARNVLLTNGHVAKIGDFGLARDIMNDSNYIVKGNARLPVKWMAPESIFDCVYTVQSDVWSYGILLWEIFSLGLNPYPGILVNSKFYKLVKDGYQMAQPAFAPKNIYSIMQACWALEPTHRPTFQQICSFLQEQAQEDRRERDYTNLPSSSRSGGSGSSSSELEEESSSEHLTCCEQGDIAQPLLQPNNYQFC
Outline: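 THP-1 cells (2×10^5/well, RPMI/10% FBS) were treated with compound, 10 doses in 3-fold steps, for 24 h at 37 °C in 0.2% DMSO final. They were then stimulated 5 min with human M-CSF (10 ng/ml final) and lysed. p-CSF1R was read by sandwich ELISA (HRP/TMB), with a sigmoidal dose-response fit.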

With `COc1cc2nccc(Oc3ccc(NC(=O)c4nn(C5CC5)cc4OCC(F)(F)F)nc3)c2cc1OC` [Compound 5] the IC50 (CSF1R (M-NFS-60 cells)) was under 1 µM and the IC50 (CSF1R) was under 0.5 µM.

`COc1cc2nccc(Oc3ccc(NC(=O)c4nn(C5CCOC5)cc4OCC(F)(F)F)c(F)c3)c2cc1OC` (centres unmarked) [Compound 77] showed an IC50 (CSF1R (M-NFS-60 cells)) of 1 to 10 µM and an IC50 (CSF1R) of at least 1 µM.

In the case of `COc1cc2nccc(Oc3ccc(NC(=O)c4nn(C5CCNC5)cc4OCC(F)(F)F)cc3F)c2cc1OC` (centres unmarked) [Compound 78], the IC50 (CSF1R (M-NFS-60 cells)) is reported as 1 to 10 µM and the IC50 (CSF1R) is reported as at least 1 µM.

Compound `COc1cc2nccc(Oc3ccc(NC(=O)c4nn(CCN)cc4OCC(F)(F)F)cc3F)c2cc1OC` [Compound 79] has an IC50 (CSF1R (M-NFS-60 cells)) of 1 to 10 µM and an IC50 (CSF1R) of at least 1 µM.

With `COc1cc2nccc(Oc3ccc(NC(=O)c4nn(CC(C)O)cc4OCC(F)(F)F)cc3F)c2cc1OC` (centres unmarked) [Compound 80] the IC50 (CSF1R (M-NFS-60 cells)) was 1 to 10 µM and the IC50 (CSF1R) was at least 1 µM.

Work on `COc1cc2nccc(Oc3ccc(NC(=O)c4nn(C5CCNC5)cc4OCC(F)(F)F)cc3C)c2cc1OC` (centres unmarked) [Compound 81] yielded an IC50 (CSF1R (M-NFS-60 cells)) of 1 to 10 µM and an IC50 (CSF1R) of at least 1 µM.

With `COc1cc2nccc(Oc3ccc(NC(=O)c4nn(CCN)cc4OCC(F)(F)F)cc3C)c2cc1OC` [Compound 82] the IC50 (CSF1R (M-NFS-60 cells)) was 1 to 10 µM and the IC50 (CSF1R) was at least 1 µM.

Compound `COc1cc2nccc(Oc3ccc(NC(=O)c4nn(CC(C)O)cc4OCC(F)(F)F)cc3C)c2cc1OC` (centres unmarked) [Compound 83] has an IC50 (CSF1R (M-NFS-60 cells)) of 1 to 10 µM and an IC50 (CSF1R) of under 0.5 µM.

Compound `COCCn1cc(OCC(F)(F)F)c(C(=O)Nc2ccc(Oc3ccnc4cc(OC)c(OC)cc34)c(C)c2)n1` [Compound 84] has an IC50 (CSF1R (M-NFS-60 cells)) of 1 to 10 µM and an IC50 (CSF1R) of 0.5 to 1 µM.

`COc1cc2nccc(Oc3ccc(NC(=O)c4nn(C5CCOC5)cc4OCC(F)(F)F)cc3C)c2cc1OC` (centres unmarked) [Compound 85] gave an IC50 (CSF1R (M-NFS-60 cells)) of 1 to 10 µM and an IC50 (CSF1R) of 0.5 to 1 µM.

`COc1cc2nccc(Oc3ccc(NC(=O)c4nn(C5CCNC5)cc4OCC(F)(F)F)cc3)c2cc1OC` (centres unmarked) [Compound 86] showed an IC50 (CSF1R (M-NFS-60 cells)) of 1 to 10 µM and an IC50 (CSF1R) of at least 1 µM.

`COc1cc2nccc(Oc3ccc(NC(=O)c4nn(CC(C)C)cc4OCC(F)(F)F)cc3)c2cc1OC` [Compound 87] was tested, and the IC50 (CSF1R (M-NFS-60 cells)) was 1 to 10 µM and the IC50 (CSF1R) was 0.5 to 1 µM.

`COc1cc2nccc(Oc3ccc(NC(=O)c4nn(CCN)cc4OCC(F)(F)F)cc3)c2cc1OC` [Compound 88] gave an IC50 (CSF1R (M-NFS-60 cells)) of 1 to 10 µM and an IC50 (CSF1R) of at least 1 µM.

In the case of `COc1cc2nccc(Oc3ccc(NC(=O)c4nn(CC(C)O)cc4OCC(F)(F)F)cc3)c2cc1OC` (centres unmarked) [Compound 89], the IC50 (CSF1R (M-NFS-60 cells)) is reported as 1 to 10 µM and the IC50 (CSF1R) is reported as 0.5 to 1 µM.

In the case of `COc1cc2nccc(Oc3ccc(NC(=O)c4nn(C5CCOCC5)cc4OCC(F)(F)F)nc3)c2cc1OC` [Compound 90], the IC50 (CSF1R (M-NFS-60 cells)) is reported as under 1 µM and the IC50 (CSF1R) is reported as under 0.5 µM.

`COc1cc2nccc(Oc3ccc(NC(=O)c4nn(C5CCN(C)C5)cc4OCC(F)(F)F)nc3)c2cc1OC` (centres unmarked) [Compound 91] showed an IC50 (CSF1R (M-NFS-60 cells)) of under 1 µM and an IC50 (CSF1R) of under 0.5 µM.

For `COc1cc2nccc(Oc3ccc(NC(=O)c4nn(CCC5CCCC5)cc4OCC(F)(F)F)nc3)c2cc1OC` [Compound 93], the IC50 (CSF1R (M-NFS-60 cells)) was under 1 µM and the IC50 (CSF1R) was under 0.5 µM.

For `COc1cc2nccc(Oc3ccc(NC(=O)c4nn(C5CCN(C)C5)cc4OCC(F)(F)F)c(F)c3)c2cc1OC` (centres unmarked) [Compound 94], the IC50 (CSF1R (M-NFS-60 cells)) was 1 to 10 µM and the IC50 (CSF1R) was at least 1 µM.

Work on `COc1cc2nccc(Oc3ccc(NC(=O)c4nn(CC5COC5)cc4OCC(F)(F)F)c(F)c3)c2cc1OC` [Compound 95] yielded an IC50 (CSF1R (M-NFS-60 cells)) of 1 to 10 µM and an IC50 (CSF1R) of at least 1 µM.
